In brackets after ≈: the same amount, converted by molar mass. Read-outs that look alike come from different tables or passages of the source. Starred links: 1 amine or outer side, 2 acyl side, 3 side chain; linkers in the order of their positions; H or OH if unused. Positions of bridges follow the written chain, without caps; N, C: chain ends. Residues, ends and D or L forms follow the SMILES beside them. *: point of attachment. C18 diacid = O=C(O)CCCCCCCCCCCCCCCCC(=O)*; γGlu = O=C(O)[C@H](CCC(=O)[*:2])N[*:1]; AEEA = NCCOCCOCC(=O)O
Key:
[1] = CNP local tolerance study in LYD pigs (s.c. injection, histopathology); type: in vivo, domestic LYD pig; settings: for assessment for human subcutaneous administration: based on pig local tolerance
How it was run: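 Domestic pigs dosed s.c. mid-back, 100 or 200 μl at approx. 4400 μM, in phosphate pH 6.5 or acetate pH 4.0 buffers with glycerol or propylene glycol; saline as negative control. Sites excised 4 or 5 days post injection, H&E sections graded on 5-level scale; necrosis used as marker.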

[2] = Solubility of CNP compounds at pH 4.0 and pH 6.5; type: physicochemical
How it was run: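 Freeze-dried peptide was brought to a nominal ≥4000-5000 nmol/mL in 5 mM sodium acetate, 250 mM glycerol (pH 4.0) or in 8 mM sodium phosphate, 23 mg/mL glycerol (pH 6.5 via NaOH titration). Samples were equilibrated at room temperature overnight if undissolved, and supernatant concentration was measured by CAD.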

mouse metatarsal bones = assay: Mouse metatarsal bone dissection and culture (ex vivo bone growth); type: cell-based, mouse (NMRI); settings: 100 nM, n=8
Experimental: The purpose of this study was to evaluate bone growth after administration of CNP compounds in an ex vivo mouse model.
Procedure: One-day old mouse pups (NMRI, Javier Labs France) were euthanised prior to dissection. All applicable international and internal Novo Nordisk guidelines for care and use of animals were followed. The three middle metatarsal bones were dissected out from each hind paw. The dissected bones were placed in 24-well cell culture plates and cultured in 400 μl a-Minimum Essential Media supplemented with 0.2% BSA, 1% Pen/Strep at 37° C. and 5% CO2. The bones from all animals were randomised into a control group and six CNP compound-treated groups (100 nM; n=8). The medium was changed every 2-3 days. All compounds were formulated according to the principles described in General Methods of Preparation—Method G. Compounds 9435 and 9483 were formulated in A) 5 mM sodium acetate, 250 mM glycerol, pH 4.0 while compounds 9384, 9407, 9480 and 9482 were formulated in B) 8 mM sodium phosphate, 250 mM glycerol, pH 7.4.
Digital pictures were captured on day 0, 4, 7, 11, and 14 using a digital camera attached to a Nikon microscope. The length of each metatarsal bone was measured using ImageJ software and increase in bone length was expressed as percentage change from the length measured at the day of dissection (Mean (SD)).
In Table 27, metatarsal bones were isolated from mice and cultured for up to 14 days. Length was measured every 3-4 days throughout the study and expressed as percentage change from day 0 (Mean (SD)). Statistically significant differences are indicated compared to control group (two-way ANOVA).

[3] = 8 mM sodium phosphate, 23 mg/mL glycerol, pH 6.5, room temperature, read-out: Solubility at pH 6.5
[4] = 5 days after subcutaneous injections in the pig
[5] = 5 mM sodium acetate, 250 mM glycerol, pH 4.0, room temperature, read-out: Solubility at pH 4.0

Compound	local subcutaneous necrosis ([1]; pig, in vivo, sc)	solubility [2, 3]	local subcutaneous necrosis [1, 4]	assessment for human subcutaneous administration [1]	Increase in bone length, mean (%) change from day 0 (mouse metatarsal bones; day 4 in culture)	Increase in bone length, mean (%) change from day 0 (mouse metatarsal bones; day 7 in culture)	Increase in bone length, mean (%) change from day 0 (mouse metatarsal bones; day 11 in culture)	Increase in bone length, mean (%) change from day 0 (mouse metatarsal bones; day 14 in culture)	solubility [2, 5]
CC[C@H](C)[C@@H]1NC(=O)[C@H](CCCNC(=N)N)NC(=O)[C@H](CCC(=O)O)NC(=O)[C@H](CC(C)C)NC(=O)[C@H](CCCCN)NC(=O)[C@H](CC(C)C)NC(=O)CNC(=O)[C@H](Cc2ccccc2)NC(=O)[C@@H](NC(=O)CNC(=O)[C@H](CCCCN)NC(=O)[C@H](CO)NC(=O)[C@H](CC(C)C)NC(=O)CNC(=O)[C@H](CCCCN)NC(=O)[C@H](CCCCN)NC(=O)[C@H](CCC(N)=O)NC(=O)[C@H](C)NC(=O)CNC(=O)[C@H](CCCCN)NC(=O)[C@H](Cc2ccc(O)cc2)NC(=O)[C@H](CCCCN)NC(=O)[C@H](CCCNC(=N)N)NC(=O)[C@H](C)NC(=O)COCCOCCNC(=O)COCCOCCNC(=O)CC[C@H](NC(=O)CCCCCCCCCCCCCCCCC(=O)O)C(=O)O)CSSC[C@@H](C(=O)O)NC(=O)CNC(=O)[C@H](CC(C)C)NC(=O)CNC(=O)[C@H](CO)NC(=O)[C@H](CC(C)C)NC(=O)[C@H](CO)NC(=O)CNC1=O [compound 0776] ({C18 diacid-γGlu-AEEA-AEEA}-ARKYKGAQKKGLSKGCFGLKLERIGSLSGLGC-OH; disulfide 16-32)	moderate to marked								
CC[C@H](C)[C@@H]1NC(=O)[C@H](CCCNC(=N)N)NC(=O)[C@H](CC(=O)O)NC(=O)[C@H](CC(C)C)NC(=O)[C@H](CCCCN)NC(=O)[C@H](CC(C)C)NC(=O)CNC(=O)[C@H](Cc2ccccc2)NC(=O)[C@@H](NC(=O)CNC(=O)[C@H](CCCCN)NC(=O)[C@H](CO)NC(=O)[C@H](CC(C)C)NC(=O)CNC(=O)[C@H](CCCCN)NC(=O)[C@H](CCCCN)NC(=O)[C@H](CCC(N)=O)NC(=O)[C@H](C)NC(=O)CNC(=O)[C@H](Cc2c[nH]cn2)NC(=O)[C@H](CCC(=O)O)NC(=O)COCCOCCNC(=O)COCCOCCNC(=O)CC[C@H](NC(=O)CCCCCCCCCCCCCCCCC(=O)O)C(=O)O)CSSC[C@@H](C(=O)O)NC(=O)CNC(=O)[C@H](CC(C)C)NC(=O)CNC(=O)[C@H](CO)NC(=O)[C@H](CC(C)C)NC(=O)[C@H](CO)NC(=O)CNC1=O [compound 1235]	minimal to mild								
CC[C@H](C)[C@@H]1NC(=O)[C@H](CCCNC(=N)N)NC(=O)[C@H](CC(=O)O)NC(=O)[C@H](CC(C)C)NC(=O)[C@@H]2CCCN2C(=O)[C@H](CC(C)C)NC(=O)CNC(=O)[C@H](Cc2ccccc2)NC(=O)[C@@H](NC(=O)CNC(=O)[C@H](CCC(N)=O)NC(=O)[C@H](CO)NC(=O)[C@H](CO)NC(=O)CNC(=O)[C@H](CCCCN)NC(=O)[C@H](CCCCN)NC(=O)[C@H](CCC(N)=O)NC(=O)[C@H](C)NC(=O)CNC(=O)[C@@H]2CCCN2C(=O)[C@H](C)NC(=O)[C@H](CCC(N)=O)NC(=O)CNC(=O)COCCOCCNC(=O)COCCOCCNC(=O)CC[C@H](NC(=O)CCCCCCCCCCCCCCCCC(=O)O)C(=O)O)CSSC[C@@H](C(=O)O)NC(=O)CNC(=O)[C@H](CC(C)C)NC(=O)CNC(=O)[C@H](CO)NC(=O)[C@H](CC(C)C)NC(=O)[C@H](CO)NC(=O)CNC1=O [compound 9384] ({C18 diacid-γGlu-AEEA-AEEA}-GQAPGAQKKGSSQGCFGLPLDRIGSLSGLGC-OH; disulfide 15-31; C-terminus assumed)		7.56 mM (≈ 28 mg/mL)	no to minimal	acceptable	33.6%	42.6%	50.1%	54.4%	
CC[C@H](C)[C@@H]1NC(=O)[C@H](CCCNC(=N)N)NC(=O)[C@H](CC(=O)O)NC(=O)[C@H](CC(C)C)NC(=O)[C@@H]2CCCN2C(=O)[C@H](CC(C)C)NC(=O)CNC(=O)[C@H](Cc2ccccc2)NC(=O)[C@@H](NC(=O)CNC(=O)[C@H](CCC(N)=O)NC(=O)[C@H](CO)NC(=O)[C@H](CC(C)C)NC(=O)CNC(=O)[C@H](CCCCN)NC(=O)[C@H](CCCCN)NC(=O)[C@H](CCC(N)=O)NC(=O)[C@H](C)NC(=O)CNC(=O)[C@H](CCCCN)NC(=O)[C@H](Cc2ccc(O)cc2)NC(=O)[C@H](CCCCN)NC(=O)[C@H](CCCNC(=N)N)NC(=O)[C@H](C)NC(=O)COCCOCCNC(=O)COCCOCCNC(=O)COCCOCCNC(=O)COCCOCCNC(=O)CC[C@H](NC(=O)CC[C@H](NC(=O)CC[C@H](NC(=O)CC[C@H](NC(=O)CC[C@H](NC(=O)CCCCCCCCCCCCCCCCC(=O)O)C(=O)O)C(=O)O)C(=O)O)C(=O)O)C(=O)O)CSSC[C@@H](C(=O)O)NC(=O)CNC(=O)[C@H](CC(C)C)NC(=O)CNC(=O)[C@H](CO)NC(=O)[C@H](CC(C)C)NC(=O)[C@H](CO)NC(=O)CNC1=O [compound 9407] ({C18 diacid-γGlu-γGlu-γGlu-γGlu-γGlu-AEEA-AEEA-AEEA-AEEA}-ARKYKGAQKKGLSQGCFGLPLDRIGSLSGLGC-OH; disulfide 16-32)		6.69 mM (≈ 32.3 mg/mL)	no to minimal	acceptable	35.1%	45.4%	53.2%	55.8%	
CC[C@H](C)[C@@H]1NC(=O)[C@H](CCCNC(=N)N)NC(=O)[C@H](CC(=O)O)NC(=O)[C@H](CC(C)C)NC(=O)[C@@H]2CCCN2C(=O)[C@H](CC(C)C)NC(=O)CNC(=O)[C@H](Cc2ccccc2)NC(=O)[C@@H](NC(=O)CNC(=O)[C@H](CCC(N)=O)NC(=O)[C@H](CO)NC(=O)CNC(=O)CNC(=O)[C@H](CCCCN)NC(=O)[C@H](CCCCN)NC(=O)[C@H](CCC(N)=O)NC(=O)[C@H](C)NC(=O)CNC(=O)[C@H](CCCCN)NC(=O)[C@H](Cc2ccc(O)cc2)NC(=O)COCCOCCNC(=O)COCCOCCNC(=O)COCCOCCNC(=O)COCCOCCNC(=O)CC[C@H](NC(=O)CC[C@H](NC(=O)CCCCCCCCCCCCCCCCC(=O)O)C(=O)O)C(=O)O)CSSC[C@@H](C(=O)O)NC(=O)CNC(=O)[C@H](CC(C)C)NC(=O)CNC(=O)[C@H](CO)NC(=O)[C@H](CC(C)C)NC(=O)[C@H](CO)NC(=O)CNC1=O [compound 9435] ({C18 diacid-γGlu-γGlu-AEEA-AEEA-AEEA-AEEA}-YKGAQKKGGSQGCFGLPLDRIGSLSGLGC-OH; disulfide 13-29; C-terminus assumed)		2.36 mM (≈ 9.5 mg/mL)	minimal to mild	acceptable	36.2%	47.3%	53.9%	59.2%	7.42 mM (≈ 29.9 mg/mL)
CC[C@H](C)[C@@H]1NC(=O)[C@H](CCCNC(=N)N)NC(=O)[C@H](CC(=O)O)NC(=O)[C@H](CC(C)C)NC(=O)[C@@H]2CCCN2C(=O)[C@H](CC(C)C)NC(=O)CNC(=O)[C@H](Cc2ccccc2)NC(=O)[C@@H](NC(=O)CNC(=O)[C@H](CCC(N)=O)NC(=O)[C@H](CO)NC(=O)[C@H](CC(C)C)NC(=O)CNC(=O)[C@H](CCCCN)NC(=O)[C@H](CCCCN)NC(=O)[C@H](CCC(N)=O)NC(=O)[C@H](C)NC(=O)CNC(=O)[C@H](CCCCN)NC(=O)[C@H](Cc2ccc(O)cc2)NC(=O)COCCOCCNC(=O)COCCOCCNC(=O)COCCOCCNC(=O)COCCOCCNC(=O)CC[C@H](NC(=O)CC[C@H](NC(=O)CC[C@H](NC(=O)CCCCCCCCCCCCCCCCC(=O)O)C(=O)O)C(=O)O)C(=O)O)CSSC[C@@H](C(=O)O)NC(=O)CNC(=O)[C@H](CC(C)C)NC(=O)CNC(=O)[C@H](CO)NC(=O)[C@H](CC(C)C)NC(=O)[C@H](CO)NC(=O)CNC1=O [compound 9480] ({C18 diacid-γGlu-γGlu-γGlu-AEEA-AEEA-AEEA-AEEA}-YKGAQKKGLSQGCFGLPLDRIGSLSGLGC-OH; disulfide 13-29)		6.17 mM (≈ 26 mg/mL)	no	acceptable	33.1%	43.9%	49.2%	52.1%	0.023 mM (≈ 0.097 mg/mL)

Source: patent US20240209028A1, “CNP COMPOUNDS” (priority 2022, published 2024)
